Assay results taken from ChEMBL document CHEMBL5465560, “Selectivity Literature for EUbOPEN Chemogenomic Library” (2024).

Tests used:
[1] = molecular target: Serine/threonine-protein kinase PAK 4 (Homo sapiens, UniProt O96013); conditions: at 10 µM
[2] = molecular target: Dual specificity mitogen-activated protein kinase kinase 1 (Homo sapiens, UniProt Q02750); assay: Selectivity interaction (KinomeScan (DiscoverX)) EUB0001550a MAP2K1; conditions: at 1 µM
[3] = molecular target: T1, Aurora kinase A (Homo sapiens) (UniProt O14965); assay: Selectivity interaction (Kinase panel (DSF assay)) EUB0001559a STK6
T1 sequence (whole entry): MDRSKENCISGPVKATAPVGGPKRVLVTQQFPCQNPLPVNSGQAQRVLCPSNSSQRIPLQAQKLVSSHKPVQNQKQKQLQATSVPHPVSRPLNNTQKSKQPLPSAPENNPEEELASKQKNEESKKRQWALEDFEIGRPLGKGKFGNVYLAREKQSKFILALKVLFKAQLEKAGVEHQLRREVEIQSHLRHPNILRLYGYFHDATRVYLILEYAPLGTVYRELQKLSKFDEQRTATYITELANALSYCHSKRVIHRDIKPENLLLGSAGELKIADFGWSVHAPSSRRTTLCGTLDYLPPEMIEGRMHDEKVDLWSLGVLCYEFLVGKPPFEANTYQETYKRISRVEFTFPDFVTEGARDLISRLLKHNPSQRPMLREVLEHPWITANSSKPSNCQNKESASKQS

[4] = molecular target: Tyrosine-protein kinase Fes/Fps (Homo sapiens) (UniProt P07332); assay: Selectivity interaction (KinomeScan (DiscoverX)) EUB0001079a FES; conditions: at 1 µM
Tyrosine-protein kinase Fes/Fps (Homo sapiens), sequence (P07332 whole entry): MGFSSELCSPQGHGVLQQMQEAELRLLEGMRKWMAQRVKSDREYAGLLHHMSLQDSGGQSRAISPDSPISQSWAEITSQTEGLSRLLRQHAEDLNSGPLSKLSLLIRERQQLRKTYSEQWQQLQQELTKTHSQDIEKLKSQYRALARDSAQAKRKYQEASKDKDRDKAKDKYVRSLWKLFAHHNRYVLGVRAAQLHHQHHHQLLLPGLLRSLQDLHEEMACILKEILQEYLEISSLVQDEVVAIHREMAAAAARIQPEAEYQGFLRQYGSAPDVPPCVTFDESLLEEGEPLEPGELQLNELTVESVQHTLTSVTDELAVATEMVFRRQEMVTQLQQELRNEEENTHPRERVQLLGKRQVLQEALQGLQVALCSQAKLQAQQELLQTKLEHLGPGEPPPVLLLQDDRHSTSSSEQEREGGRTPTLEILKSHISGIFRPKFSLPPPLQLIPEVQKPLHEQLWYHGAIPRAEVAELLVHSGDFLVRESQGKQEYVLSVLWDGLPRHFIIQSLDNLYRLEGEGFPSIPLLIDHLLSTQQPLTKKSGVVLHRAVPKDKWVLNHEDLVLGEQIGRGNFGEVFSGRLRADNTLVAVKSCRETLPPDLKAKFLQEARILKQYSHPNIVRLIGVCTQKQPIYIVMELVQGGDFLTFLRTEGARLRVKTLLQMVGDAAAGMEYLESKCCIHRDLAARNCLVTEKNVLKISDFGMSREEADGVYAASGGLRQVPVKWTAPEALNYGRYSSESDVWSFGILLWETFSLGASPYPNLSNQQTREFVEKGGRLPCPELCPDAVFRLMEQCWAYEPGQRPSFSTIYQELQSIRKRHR

[5] = molecular target: T2, Serine/threonine-protein kinase Nek9 (Homo sapiens) (UniProt Q8TD19); assay: Selectivity interaction (Kinase panel (KiNativ target engagement assay in Jurkat cells)) EUB0001635a NEK9; assay type: cell-based; conditions: at 1 µM
T2 sequence (whole entry): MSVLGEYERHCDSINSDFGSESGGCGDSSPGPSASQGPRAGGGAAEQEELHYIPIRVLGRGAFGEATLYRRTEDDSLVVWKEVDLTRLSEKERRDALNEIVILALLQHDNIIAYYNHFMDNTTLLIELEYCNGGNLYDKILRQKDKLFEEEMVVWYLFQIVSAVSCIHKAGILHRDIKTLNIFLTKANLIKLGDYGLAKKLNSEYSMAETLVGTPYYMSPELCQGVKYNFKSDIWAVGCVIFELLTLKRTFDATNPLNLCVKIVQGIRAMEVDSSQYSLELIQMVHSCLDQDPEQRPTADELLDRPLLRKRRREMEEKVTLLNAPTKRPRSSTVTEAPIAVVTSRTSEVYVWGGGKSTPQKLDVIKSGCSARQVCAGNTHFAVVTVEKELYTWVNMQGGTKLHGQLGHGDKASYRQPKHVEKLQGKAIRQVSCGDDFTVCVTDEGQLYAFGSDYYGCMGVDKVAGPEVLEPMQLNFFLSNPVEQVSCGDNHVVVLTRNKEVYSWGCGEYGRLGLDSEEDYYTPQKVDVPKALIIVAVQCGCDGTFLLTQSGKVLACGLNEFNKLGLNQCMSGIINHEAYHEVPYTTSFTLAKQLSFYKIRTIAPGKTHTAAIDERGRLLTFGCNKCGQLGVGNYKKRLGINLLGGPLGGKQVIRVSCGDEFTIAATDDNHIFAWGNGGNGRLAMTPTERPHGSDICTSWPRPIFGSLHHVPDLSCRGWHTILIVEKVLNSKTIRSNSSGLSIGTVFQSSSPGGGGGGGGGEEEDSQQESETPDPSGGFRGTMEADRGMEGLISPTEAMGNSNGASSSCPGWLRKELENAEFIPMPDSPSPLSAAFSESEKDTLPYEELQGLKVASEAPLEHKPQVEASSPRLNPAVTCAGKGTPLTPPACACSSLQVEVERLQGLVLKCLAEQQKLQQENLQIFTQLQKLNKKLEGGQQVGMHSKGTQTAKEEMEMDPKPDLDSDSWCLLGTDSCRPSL

[6] = test system: Tyrosine-protein kinase ABL1 (Homo sapiens), P00519 [F317I]; assay: Selectivity interaction (KinomeScan (DiscoverX)) EUB0000666a ABL1; conditions: at 10 µM
[7] = test system: Tyrosine-protein kinase ABL1 (Homo sapiens), P00519 [F317L]; conditions: at 10 µM
[8] = molecular target: Tyrosine-protein kinase CSK (Homo sapiens) (UniProt P41240); conditions: at 10 µM
Tyrosine-protein kinase CSK (Homo sapiens), sequence (P41240 2-450 limits assumed): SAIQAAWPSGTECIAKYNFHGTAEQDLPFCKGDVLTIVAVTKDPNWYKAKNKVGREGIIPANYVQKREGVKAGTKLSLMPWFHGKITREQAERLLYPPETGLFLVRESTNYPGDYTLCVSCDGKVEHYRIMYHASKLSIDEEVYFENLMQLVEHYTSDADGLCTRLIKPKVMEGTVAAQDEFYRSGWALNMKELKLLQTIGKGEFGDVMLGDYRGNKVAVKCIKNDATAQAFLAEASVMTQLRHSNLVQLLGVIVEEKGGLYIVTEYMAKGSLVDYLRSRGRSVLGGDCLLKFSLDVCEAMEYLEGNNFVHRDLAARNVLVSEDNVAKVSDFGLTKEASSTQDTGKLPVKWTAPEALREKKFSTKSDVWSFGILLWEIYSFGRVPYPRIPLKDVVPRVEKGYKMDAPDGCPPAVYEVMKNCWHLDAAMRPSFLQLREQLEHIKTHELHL

[9] = molecular target: Protein polybromo-1 (Homo sapiens) (UniProt Q86U86); assay: Selectivity interaction (Bromodomain panel (DSF asssay)) EUB0000270b PBRM1
Protein polybromo-1 (Homo sapiens), sequence (Q86U86 whole entry): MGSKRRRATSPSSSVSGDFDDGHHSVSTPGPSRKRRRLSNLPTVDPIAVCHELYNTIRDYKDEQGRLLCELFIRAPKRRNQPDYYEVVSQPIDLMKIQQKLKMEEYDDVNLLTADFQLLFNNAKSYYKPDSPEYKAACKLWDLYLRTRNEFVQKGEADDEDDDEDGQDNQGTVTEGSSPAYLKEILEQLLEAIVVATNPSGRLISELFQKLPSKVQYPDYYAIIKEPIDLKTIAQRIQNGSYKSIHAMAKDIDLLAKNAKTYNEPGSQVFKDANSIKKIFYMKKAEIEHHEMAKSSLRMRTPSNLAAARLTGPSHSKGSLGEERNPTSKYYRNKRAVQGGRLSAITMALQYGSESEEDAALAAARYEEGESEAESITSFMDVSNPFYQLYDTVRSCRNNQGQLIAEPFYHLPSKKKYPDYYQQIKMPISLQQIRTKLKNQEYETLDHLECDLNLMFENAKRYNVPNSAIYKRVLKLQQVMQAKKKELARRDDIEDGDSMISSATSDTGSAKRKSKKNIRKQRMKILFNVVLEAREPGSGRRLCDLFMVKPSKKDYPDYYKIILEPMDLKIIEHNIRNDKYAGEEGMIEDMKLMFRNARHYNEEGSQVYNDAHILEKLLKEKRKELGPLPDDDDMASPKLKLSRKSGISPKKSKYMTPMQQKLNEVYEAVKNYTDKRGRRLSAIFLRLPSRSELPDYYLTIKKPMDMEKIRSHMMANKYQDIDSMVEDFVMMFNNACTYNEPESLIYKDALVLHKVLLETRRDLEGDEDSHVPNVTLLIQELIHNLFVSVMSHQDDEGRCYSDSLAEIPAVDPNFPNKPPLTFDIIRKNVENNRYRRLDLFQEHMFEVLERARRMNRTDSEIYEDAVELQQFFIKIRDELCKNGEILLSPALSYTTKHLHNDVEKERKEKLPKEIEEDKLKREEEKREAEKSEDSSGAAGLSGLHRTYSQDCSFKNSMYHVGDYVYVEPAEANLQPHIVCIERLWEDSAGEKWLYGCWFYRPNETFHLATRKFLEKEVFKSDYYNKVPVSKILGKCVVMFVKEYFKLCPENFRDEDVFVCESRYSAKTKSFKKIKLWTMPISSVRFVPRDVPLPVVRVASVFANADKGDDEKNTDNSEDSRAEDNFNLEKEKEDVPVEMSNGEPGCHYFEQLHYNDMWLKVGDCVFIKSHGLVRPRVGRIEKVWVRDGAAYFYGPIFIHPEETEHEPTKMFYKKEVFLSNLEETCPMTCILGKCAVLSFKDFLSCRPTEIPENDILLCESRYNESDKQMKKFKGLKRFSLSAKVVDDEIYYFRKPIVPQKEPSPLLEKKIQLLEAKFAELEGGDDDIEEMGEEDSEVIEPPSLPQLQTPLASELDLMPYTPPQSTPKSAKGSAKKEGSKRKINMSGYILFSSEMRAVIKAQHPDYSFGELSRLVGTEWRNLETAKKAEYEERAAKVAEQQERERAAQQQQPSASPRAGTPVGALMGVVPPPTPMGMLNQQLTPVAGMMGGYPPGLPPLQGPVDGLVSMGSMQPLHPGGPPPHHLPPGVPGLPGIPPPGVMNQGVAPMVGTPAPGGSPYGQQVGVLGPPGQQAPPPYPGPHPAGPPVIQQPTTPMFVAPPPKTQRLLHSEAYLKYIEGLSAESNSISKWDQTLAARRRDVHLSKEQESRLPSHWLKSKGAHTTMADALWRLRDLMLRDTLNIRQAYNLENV

Focal adhesion kinase 1 = Focal adhesion kinase 1 (Homo sapiens, UniProt Q05397); assay: Selectivity interaction (ActivX KiNativ screen (kinase selectivity in THP-1 cell lysates)) EUB0000639a PTK2; assay type: subcellular; conditions: lysate, at 5 µM
Focal adhesion kinase 1, sequence (Q05397 2-1052 limits assumed): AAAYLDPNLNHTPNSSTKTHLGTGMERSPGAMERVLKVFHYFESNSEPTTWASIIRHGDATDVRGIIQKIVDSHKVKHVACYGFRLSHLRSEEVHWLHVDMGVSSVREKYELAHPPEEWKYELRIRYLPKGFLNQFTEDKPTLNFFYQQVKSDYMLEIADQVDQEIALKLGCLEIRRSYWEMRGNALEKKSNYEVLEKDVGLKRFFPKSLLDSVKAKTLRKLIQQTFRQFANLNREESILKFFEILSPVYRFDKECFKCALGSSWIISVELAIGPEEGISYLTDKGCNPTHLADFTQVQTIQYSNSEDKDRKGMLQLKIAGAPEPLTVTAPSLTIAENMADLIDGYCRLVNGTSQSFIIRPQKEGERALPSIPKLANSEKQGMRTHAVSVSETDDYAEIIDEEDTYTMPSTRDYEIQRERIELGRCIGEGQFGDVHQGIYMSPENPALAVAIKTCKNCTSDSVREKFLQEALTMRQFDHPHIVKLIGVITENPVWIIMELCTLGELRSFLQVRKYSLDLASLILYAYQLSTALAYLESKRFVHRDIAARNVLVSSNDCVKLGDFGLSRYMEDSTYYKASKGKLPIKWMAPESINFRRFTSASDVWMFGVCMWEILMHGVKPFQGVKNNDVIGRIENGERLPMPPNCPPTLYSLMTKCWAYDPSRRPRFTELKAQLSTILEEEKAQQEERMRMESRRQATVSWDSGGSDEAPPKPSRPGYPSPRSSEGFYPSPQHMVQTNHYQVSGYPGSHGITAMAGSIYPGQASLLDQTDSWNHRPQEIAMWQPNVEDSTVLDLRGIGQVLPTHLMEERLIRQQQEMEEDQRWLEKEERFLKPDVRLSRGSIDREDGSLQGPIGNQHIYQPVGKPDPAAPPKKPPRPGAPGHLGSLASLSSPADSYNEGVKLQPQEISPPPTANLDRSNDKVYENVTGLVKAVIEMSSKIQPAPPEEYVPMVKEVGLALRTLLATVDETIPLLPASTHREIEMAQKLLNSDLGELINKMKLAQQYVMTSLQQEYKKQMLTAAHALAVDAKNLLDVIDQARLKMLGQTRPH

[10] = molecular target: Transient receptor potential cation channel subfamily M member 6 (Homo sapiens) (UniProt Q9BX84); assay: Selectivity interaction (KinomeScan (DiscoverX)) EUB0001049a TRPM6; conditions: at 1 µM
[11] = molecular target: Dual specificity tyrosine-phosphorylation-regulated kinase 1A (Homo sapiens, UniProt Q13627); assay: Selectivity interaction (Kinase screening (Nanosyn)) EUB0000604a DYRK1A
[12] = molecular target: Histone-lysine N-methyltransferase 2A (Homo sapiens) (UniProt Q03164); conditions: at 10 µM

Serine/threonine-protein kinase PAK 4, sequence (O96013 whole entry, looked up): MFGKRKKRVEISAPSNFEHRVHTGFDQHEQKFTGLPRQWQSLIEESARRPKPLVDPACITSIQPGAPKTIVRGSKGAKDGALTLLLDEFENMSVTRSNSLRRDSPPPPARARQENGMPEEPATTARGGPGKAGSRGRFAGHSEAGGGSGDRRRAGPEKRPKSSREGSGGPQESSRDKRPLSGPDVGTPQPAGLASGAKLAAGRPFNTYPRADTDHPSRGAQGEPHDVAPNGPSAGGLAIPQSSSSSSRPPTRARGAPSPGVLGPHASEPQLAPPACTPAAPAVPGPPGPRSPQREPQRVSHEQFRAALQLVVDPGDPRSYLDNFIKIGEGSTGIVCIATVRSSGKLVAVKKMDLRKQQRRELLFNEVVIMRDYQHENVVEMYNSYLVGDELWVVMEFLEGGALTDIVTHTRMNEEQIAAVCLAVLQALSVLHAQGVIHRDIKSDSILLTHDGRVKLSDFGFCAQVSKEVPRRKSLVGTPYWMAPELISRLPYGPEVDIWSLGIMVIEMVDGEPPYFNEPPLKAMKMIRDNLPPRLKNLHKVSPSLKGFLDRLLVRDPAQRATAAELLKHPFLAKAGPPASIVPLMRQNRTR
Dual specificity mitogen-activated protein kinase kinase 1, sequence (Q02750 whole entry): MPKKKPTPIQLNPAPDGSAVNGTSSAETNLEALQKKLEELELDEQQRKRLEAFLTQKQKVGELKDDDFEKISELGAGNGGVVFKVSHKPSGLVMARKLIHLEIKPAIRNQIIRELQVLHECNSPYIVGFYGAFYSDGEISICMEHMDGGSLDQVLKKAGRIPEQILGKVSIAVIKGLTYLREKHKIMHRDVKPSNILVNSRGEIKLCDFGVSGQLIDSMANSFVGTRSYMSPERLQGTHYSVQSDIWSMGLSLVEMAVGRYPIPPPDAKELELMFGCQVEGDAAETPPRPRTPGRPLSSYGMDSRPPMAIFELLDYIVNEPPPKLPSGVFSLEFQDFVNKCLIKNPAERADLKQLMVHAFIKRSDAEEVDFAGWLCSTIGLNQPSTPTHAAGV

Which % of control [1] does the source give for `CCN(CC)CCCCNc1ncc2cc(-c3cc(OC)cc(OC)c3)c(NC(=O)NC(C)(C)C)nc2n1` here?
The % of control was 100%.

`CN(C)CC#Cc1ccc2[nH]c3c(c2c1)-c1nc(N)ncc1CCC3` was tested. Which % of control [2] did it give?
Its % of control is 4.5%.

For `CN(C(=O)c1cnn2cccnc12)c1cc2c(cc1N1CCOCC1)C(=O)N(C[C@@H](F)C(C)(C)O)C2`, which dTM [3] is on record?
Its dTM is -0.6 K.

For `Nc1cnc(N2CCc3cc(S(=O)(=O)Nc4c(F)cc(Cl)cc4F)cc(N4CCCC4=O)c32)nc1` [TP-020n], which % of control [4] is on record?
Its % of control is 100%.

For `C=CC(=O)Nc1ccc(C(=O)Nc2[nH]nc3c2CN(C(=O)N[C@H](CN(C)C)c2ccccc2)C3(C)C)cc1`, which % of engagement ([5]; Selectivity number of off-targets 0.0, Selectivity number of targets 233.0, Source Knowledge https://www.sciencedirect.com/science/article/pii/S2451945619300674?via%3Dihub) is on record?
Its % of engagement is -1.8%.

And the % of engagement [5]?
Its % of engagement is -1.7%.

`O=C(NOC[C@H](O)CO)c1ccc(F)c(F)c1Nc1ccc(I)cc1F` was tested. Which % of control [6] did it give?
The % of control was 100%.

For `Cc1cc([C@@H](C)Nc2ccccc2C(=O)O)c2nc(N3CCOCC3)cc(=O)n2c1` [AZD-6482], which % of control [7] is on record?
Its % of control is 89%.

What about the % of control [8] of the same compound?
Its % of control is 100%.

`Cc1cc(CN)cc(C)c1-c1ncn(C)c1-c1cncn1C` was tested. Which dTM [9] did it give?
The dTM was -1.91 K.

With `CC[C@@H]1[C@H](F)C(=O)N[C@@H]1COc1nccc2cc(C(N)=O)c(OC)cc12` [ZIMLOVISERTIB] as the compound, how does the % of inhibition (Focal adhesion kinase 1) read?
Its % of inhibition is -9.4%.

`COc1cc(Nc2nc(C)cc(-c3cnn4nc(OC)ccc34)n2)cc(C(F)(F)F)c1` was tested. Which % of control [10] did it give?
The % of control was 96%.

With `Cc1cnc(Nc2ccc(F)cc2Cl)nc1-c1c[nH]c(C(=O)N[C@H](CO)c2cccc(Cl)c2)c1` as the compound, how does the % of inhibition [11] read?
Its % of inhibition is 3%.

Which % activity [12] does the source give for `CNCCN1CCC(c2cc(CN(C)C(=O)c3cccc(Oc4ccccc4)c3)ccn2)CC1` here?
Its % activity is greater than 90%.
